Experimental data published in ChEMBL document CHEMBL1149774, “Synthesis of N-(5,7-diamino-3-phenyl-quinoxalin-2-yl)-3,4,5-substituted anilines and N-[4[(5,7-diamino-3-phenylquinoxalin-2-yl)amino]benzoyl]-l-glutamic acid diethyl ester: evaluation of in vitro anti-cancer and anti-folate activities” (Eur J Med Chem, 2008).

Key:
COLO 205 = test: Growth inhibition of human COLO205 cells after 48 hrs by SRB staining method; assay type: functional; conditions: COLO 205, 48 h
SN12C = test: Growth inhibition of human SN12C cells after 48 hrs by SRB staining method; assay type: functional
RPMI-8226 = test: Growth inhibition of human RPMI8226 cells after 48 hrs by SRB staining method; assay type: functional; conditions: RPMI-8226, 48 h
SW-620 = test: Growth inhibition of human SW620 cells after 48 hrs by SRB staining method; assay type: functional; conditions: SW-620, 48 h
Dihydrofolate reductase = biological target: T1, Dihydrofolate reductase (Homo sapiens, UniProt P00374); test: Inhibition of human dihydrofolate reductase
T1 sequence (P00374 whole entry): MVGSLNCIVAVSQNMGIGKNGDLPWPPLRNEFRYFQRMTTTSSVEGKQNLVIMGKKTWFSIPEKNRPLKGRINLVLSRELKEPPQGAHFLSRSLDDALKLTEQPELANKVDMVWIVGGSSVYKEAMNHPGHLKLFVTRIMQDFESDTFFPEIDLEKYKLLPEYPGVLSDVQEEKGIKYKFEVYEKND

SNB-75 = test: Growth inhibition of human SNB75 cells after 48 hrs by SRB staining method; assay type: functional; conditions: SNB-75, 48 h
BT-549 = test: Growth inhibition of human BT549 cells after 48 hrs by SRB staining method; assay type: functional; conditions: BT-549, 48 h
Malme-3M = test: Growth inhibition of human MALME-3M cells after 48 hrs by SRB staining method; assay type: functional
[1] = Growth inhibition of human HS 578T cells after 48 hrs by SRB staining method; assay type: functional
OVCAR-3 = test: Growth inhibition of human OVCAR-3 cells after 48 hrs by SRB staining method; assay type: functional; conditions: OVCAR-3, 48 h
OVCAR-4 = test: Growth inhibition of human OVCAR4 cells after 48 hrs by SRB staining method; assay type: functional; conditions: OVCAR-4, 48 h
NCI-H322M = test: Growth inhibition of human NCI-H322M cells after 48 hrs by SRB staining method; assay type: functional
NCI-H226 = test: Growth inhibition of human NCI-H226 cells after 48 hrs by SRB staining method; assay type: functional; conditions: NCI-H226, 48 h
HOP-92 = test: Growth inhibition of human HOP92 cells after 48 hrs by SRB staining method; assay type: functional; conditions: HOP-92, 48 h
HT-29 = test: Growth inhibition of human HT29 cells after 48 hrs by SRB staining method; assay type: functional; conditions: HT-29, 48 h
UO-31 = test: Growth inhibition of human UO31 cells after 48 hrs by SRB staining method; assay type: functional; conditions: UO-31, 48 h
HL-60 = test: Growth inhibition of human HL60 cells after 48 hrs by SRB staining method; assay type: functional; conditions: HL-60, 48 h
SK-MEL-2 = test: Growth inhibition of human SK-MEL-2 cells after 48 hrs by SRB staining method; assay type: functional; conditions: SK-MEL-2, 48 h
HCT-15 = test: Growth inhibition of human HCT15 cells after 48 hrs by SRB staining method; assay type: functional; conditions: HCT-15, 48 h
Thymidylate synthase = Thymidylate synthase (Homo sapiens, UniProt P04818)
Sequence of Thymidylate synthase (P04818 whole entry): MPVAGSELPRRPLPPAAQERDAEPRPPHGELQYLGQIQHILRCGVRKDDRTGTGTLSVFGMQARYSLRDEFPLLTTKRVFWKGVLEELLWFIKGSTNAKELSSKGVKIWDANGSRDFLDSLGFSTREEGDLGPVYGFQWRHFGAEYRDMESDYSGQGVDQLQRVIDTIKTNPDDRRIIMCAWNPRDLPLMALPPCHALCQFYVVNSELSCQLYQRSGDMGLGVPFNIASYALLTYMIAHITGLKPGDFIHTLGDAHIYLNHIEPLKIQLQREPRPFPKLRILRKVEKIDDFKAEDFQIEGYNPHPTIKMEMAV
Description: Inhibition of human thymidylate synthase

HOP-62 = test: Growth inhibition of human HOP62 cells after 48 hrs by SRB staining method; assay type: functional; conditions: HOP-62, 48 h
MDA-N = test: Growth inhibition of human MDA-N cells after 48 hrs by SRB staining method; assay type: functional
CCRF-CEM = test: Growth inhibition of human CCRF-CEM cells after 48 hrs by SRB staining method; assay type: functional
HCC 2998 = test: Growth inhibition of human HCC2998 cells after 48 hrs by SRB staining method; assay type: functional; conditions: HCC 2998, 48 h
LOX IMVI = test: Growth inhibition of human LOX IMVI cells after 48 hrs by SRB staining method; assay type: functional
NCI-H522 = test: Growth inhibition of human NCI-H522 cells after 48 hrs by SRB staining method; assay type: functional; conditions: NCI-H522, 48 h
OVCAR-5 = test: Growth inhibition of human OVCAR5 cells after 48 hrs by SRB staining method; assay type: functional; conditions: OVCAR-5, 48 h
[2] = read-out: pLC50 (the source's name) (converted)

## COc1cc(Nc2nc3cc(N)cc(N)c3nc2-c2ccccc2)cc(OC)c1
COLO 205
  GI50: 14.5 µM
  LC50: 67.6 µM
COLO 205; read-out: pTGI (converted)
  TGI: 31.6 µM
SN12C
  GI50: 8.71 µM
SN12C; [2]
  CC50: > 100 µM
SN12C; read-out: pTGI (converted)
  TGI: > 100 µM
RPMI-8226
  GI50: 1.26 µM
RPMI-8226; [2]
  CC50: 32.4 µM
RPMI-8226; read-out: pTGI (converted)
  TGI: 10.5 µM
SW-620
  GI50: 26.9 µM
SW-620; [2]
  CC50: > 100 µM
SW-620; read-out: pTGI (converted)
  TGI: > 100 µM
Dihydrofolate reductase
  Ki: 0.6 µM
SNB-75
  GI50: 3.72 µM
  LC50: > 100 µM
SNB-75; read-out: pTGI (converted)
  TGI: 44.7 µM
BT-549
  GI50: 4.68 µM
BT-549; [2]
  CC50: > 100 µM
BT-549; read-out: pTGI (converted)
  TGI: 31.6 µM
Malme-3M
  GI50: 4.37 µM
  LC50: > 100 µM
Malme-3M; read-out: pTGI (converted)
  TGI: 24.5 µM
[1]
  GI50: 11 µM
[1]; [2]
  CC50: > 100 µM
[1]; read-out: pTGI (converted)
  TGI: 63.1 µM
OVCAR-3
  GI50: 3.89 µM
  LC50: 100 µM
OVCAR-3; read-out: pTGI (converted)
  TGI: 20 µM
OVCAR-4
  GI50: 17.8 µM
  LC50: > 100 µM
OVCAR-4; read-out: pTGI (converted)
  TGI: > 100 µM
NCI-H322M
  GI50: 13.8 µM
  LC50: > 100 µM
NCI-H322M; read-out: pTGI (converted)
  TGI: 58.9 µM
NCI-H226
  GI50: 2.88 µM
  LC50: > 100 µM
NCI-H226; read-out: pTGI (converted)
  TGI: 33.1 µM
HOP-92
  LC50: > 100 µM
HT-29
  GI50: 27.5 µM
  LC50: > 100 µM
HT-29; read-out: pTGI (converted)
  TGI: > 100 µM
UO-31
  GI50: 8.91 µM
UO-31; [2]
  CC50: > 100 µM
UO-31; read-out: pTGI (converted)
  TGI: 44.7 µM
HL-60
  GI50: 10 µM
HL-60; [2]
  CC50: > 100 µM
HL-60; read-out: pTGI (converted)
  TGI: > 100 µM
SK-MEL-2
  GI50: 12 µM
  LC50: > 100 µM
SK-MEL-2; read-out: pTGI (converted)
  TGI: 63.1 µM
HCT-15
  GI50: 20 µM
  LC50: > 100 µM
HCT-15; read-out: pTGI (converted)
  TGI: > 100 µM
Thymidylate synthase
  Ki: 25 µM
HOP-62
  GI50: 19.5 µM
  LC50: > 100 µM
HOP-62; read-out: pTGI (converted)
  TGI: 53.7 µM
MDA-N
  GI50: 12.9 µM
MDA-N; [2]
  CC50: 100 µM
MDA-N; read-out: pTGI (converted)
  TGI: 36.3 µM
CCRF-CEM
  GI50: < 0.01 µM
CCRF-CEM; [2]
  CC50: 0.977 µM
CCRF-CEM; read-out: pTGI (converted)
  TGI: 0.166 µM
HCC 2998
  GI50: 24.5 µM
  LC50: > 100 µM
HCC 2998; read-out: pTGI (converted)
  TGI: > 100 µM
LOX IMVI
  GI50: 15.1 µM
  LC50: > 100 µM
LOX IMVI; read-out: pTGI (converted)
  TGI: 50.1 µM
NCI-H522
  GI50: 9.55 µM
  LC50: 85.1 µM
NCI-H522; read-out: pTGI (converted)
  TGI: 28.8 µM
OVCAR-5
  GI50: 26.3 µM
  LC50: > 100 µM
OVCAR-5; read-out: pTGI (converted)
  TGI: > 100 µM
